Measured values taken from US8338476B2, “Compositions and methods of sensitizing methicillin resistant Staphylococcus aureus to beta-lactam antibiotics” (priority 2005, dated 2012).
Like-named read-outs stand apart in the source and are kept apart here.

Assays:
Format in all cases: cell-based, Staphylococcus aureus
[1] = tested on: mid-logarithmic EMRSA-16 cells; assay: Binding of catechins to S. aureus cells (HPLC assay of Kajiya et al); settings: for fraction of the catechin pool bound to / associated with the cells: catechin alone, 20 min incubation at 35° C.
From the text: As S. aureus membranes are uniquely composed of phosphatidylglycerol (63-74%), lysylphosphatidylglycerol (17-22%), and cardiolipin (5-15%), the inventors determined the capacity of non-galloylated catechins to enhance ECG binding to S. aureus using the HPLC assay described by Kajiya et al (Kajiya, K., S. Kumazawa, and T. Nakayama. 2001. Steric effects on the interaction of tea catechins with lipid bilayers. Biosci. Biotechnol. Biochem. 65:2638-2643). EC, EGC, ECG and EGCG were provided by the Tokyo Food Techno Co. Ltd., Tokyo, Japan. S. aureus BB568 is a constitutive PBP2a producer (provided by B. Berger-Bächi, University of Zürich), and EMRSA-15 and EMRSA-16 were clinical isolates from the Royal Free Hospital, London. Binding of ECG to mid-logarithmic EMRSA-16 cells was enhanced by EC at concentrations of 25 mcg/ml. 13% of the EC pool bound after 20 min incubation at 35° C., and 22% of ECG was associated with the cells. In the presence of EC, ECG binding rose to 41%. […] EC appears, therefore, to facilitate ECG binding to staphylococcal cells as well as to PC and PE liposomes.

EMRSA-16 = assay: Checkerboard MIC assay, sensitization to oxacillin; settings: for MIC: Staphylococcus aureus
Method: MICs were then recorded and the experiments were repeated in the presence of the non-galloylated catechin epicatechin at varying concentrations between 0 mcg/ml and 50 mcg/ml.
(§1) Checkerboard MIC assays were performed in 96-well microtiter trays with an inoculum of about 10^4 CFU in 200 μl of Mueller-Hinton broth (Oxoid, Basingstoke, United Kingdom) supplemented with 2% NaCl. MIC values were obtained after incubation at 35° C. for 24 h. S. aureus ATCC29213 was used as the standard susceptible strain. Fractional inhibitory concentration (FIC) indices for triple combinations were calculated as follows: ΣFIC=FICOXA+FICB+FICC=[C^combOXA/MIC^OXA]+[C^combB/MICB]+[C^combC/MICC], where C^combB, and C^combc are the concentrations of catechins tested. […] For combinations of two compounds the term (C^combC/MICC) was omitted. An FIC index of ≦0.5 indicates synergy.

[2] = tested on: EMRSA-16, EMRSA-15 and BB568; assay: Checkerboard MIC assay, results stated jointly for the three isolates
Method: as §1

S. aureus BB568 = assay: Checkerboard MIC assay, sensitization to oxacillin; settings: for MIC: Staphylococcus aureus
Method: as §1

EMRSA-15 = assay: Checkerboard MIC assay, sensitization to oxacillin
Method: as §1

Structure (SMILES): Oc1cc(O)c2c(c1)O[C@H](c1ccc(O)c(O)c1)[C@H](O)C2 [EC, epicatechin]
- EC binding in the presence of ECG ([1]; 20 min at 35° C.): 35.5%
- fraction of the catechin pool bound to / associated with the cells [1]: 13%

Structure (SMILES): O=C(O[C@@H]1Cc2c(O)cc(O)cc2O[C@@H]1c1ccc(O)c(O)c1)c1cc(O)c(O)c(O)c1 [ECG, epicatechin gallate]
- ECG binding in the presence of EC ([1]; EC 25 mcg/ml, 20 min at 35° C.): 41%
- fraction of the catechin pool bound to / associated with the cells [1]: 22%
- growth of EMRSA-16 in the absence of oxacillin (EMRSA-16; ECG ≧12.5 mg/ml with both EC and EGC ≧50 mg/ml, no oxacillin): inhibited the growth

Structure (SMILES): Oc1cc(O)c2c(c1)O[C@H](c1cc(O)c(O)c(O)c1)[C@H](O)C2 [EGC, epigallocatechin]
- FIC index, triple combination with oxacillin and ECG ([2]; FIC index ≦0.5 indicates synergy): strong synergy
- effect on the capacity of ECG to reduce oxacillin resistance ([2]; in combination with ECG and oxacillin): markedly enhanced
- enhancement of EGCG-mediated sensitization to oxacillin ([2]; in combination with EGCG and oxacillin, less than with ECG): could enhance sensitization
- effect of the non-galloylated catechin alone on the MIC of oxacillin ([2]; without ECG): unable to reduce the MIC of oxacillin

Structure (SMILES): O=C(O[C@@H]1Cc2c(O)cc(O)cc2O[C@@H]1c1cc(O)c(O)c(O)c1)c1cc(O)c(O)c(O)c1 [EGCG, epigallocatechin gallate]
- effect of EGCG on the capacity of ECG to reduce the oxacillin MIC (S. aureus BB568; ECG 12.5 mg/ml): compromised the capacity of ECG to reduce the MICs
- effect on oxacillin MIC when added to ECG (EMRSA-16; ECG 0-12.5 mcg/ml, added catechin 0-50 mcg/ml): substantially no significant and synergistic effect
- effect of EGCG on the capacity of ECG to reduce the oxacillin MIC (EMRSA-16; ECG 12.5 mg/ml): compromised the capacity of ECG to reduce the MICs
- reduction of the oxacillin MIC by EGCG in the presence of ECG ([2]; ECG 3.12 mg/ml + EGCG 25 mg/ml, strain not stated): twofold
- sensitization to oxacillin by EGCG ([2]; EGCG without ECG, effect much less pronounced than with ECG): able to sensitize

Structure (SMILES): Cc1onc(-c2ccccc2)c1C(=O)N[C@@H]1C(=O)N2[C@@H]1SC(C)(C)[C@@H]2C(=O)O [oxacillin]
- oxacillin MIC in the presence of ECG (EMRSA-15; ECG 3.12 mg/ml): a similar effect was achieved
- MIC (EMRSA-15; Staphylococcus aureus, 24 h, read-out: MIC of oxacillin): 16 µg/mL
- oxacillin MIC in the presence of ECG (S. aureus BB568; ECG 12.5 mg/ml): below the oxacillin breakpoint
- MIC (S. aureus BB568; BB568, read-out: oxacillin MIC in the presence of ECG and EC): 8 µg/mL
- MIC (S. aureus BB568; BB568, read-out: oxacillin MIC in the presence of ECG and EC, ECG 3.12 mg/ml + EC 25 mg/ml): 2 µg/mL
- oxacillin MIC in the presence of ECG (EMRSA-16; ECG 12.5 mg/ml): below the oxacillin breakpoint
- MIC (EMRSA-16; read-out: oxacillin MIC in the presence of ECG and EC, ECG 3.12 mg/ml + EC 25 mg/ml): 2 µg/mL
- MIC (EMRSA-16; read-out: oxacillin MIC in the presence of ECG and EC, ECG 3.12 mcg/ml + EC 6.25 mcg/ml): 8 µg/mL
